According to patent publication US10407406B2, “2-halo-5-alkynyl-pyridyl nicotinic ligands” (Georgetown University, priority 2013, dated 2019):
Read-outs that look alike come from different tables or passages of the source.

Experiments:
human α4β2 nAChRs = molecular target: T1, human α4β2 nAChRs (Homo sapiens, UniProt P17787+P43681); test: 86Rb+ efflux assay in cells expressing human α4β2 nAChRs; format: cell-based; conditions: for IC50: desensitization, 10 min pre-treatment before 100 μM (−)-nicotine; for α4β2 Emax: efficacy compared to 100 μM (−)-nicotine
T1 construct: expressed in transfected cells
Experimental: (§1) The functional properties of the ligands were determined by ^86Rb^| efflux assays in cells expressing α3β4 and α4β2 nAChR subtypes. The functional activity of each ligand was measured for its agonism, antagonism and desensitization ability. Agonist activity for each of the ligands was tested at eight different concentrations. […] The full concentration-effect curves generated potency (EC50) and efficacy (Emax) of each ligand. […] Each ligand was tested for antagonist activity at eight concentrations. The potency (IC50(0′)) of each ligand as an antagonist was derived from the full concentration-effect curves. […] Although ^86Rb^+ efflux assays are mainly used to determine functional properties, whole cell current measurements were also used to verify the key experiments.
(§2) In Vitro Effects on nAChR Function. […] Their agonist activities were assessed by measuring stimulated ^86Rb^+ efflux from stably transfected cells, either expressing human α4β2 nAChRs or rat α3β4 receptors.
(§3) The cell lines expressing defined rat nAChR subtypes were established previously by stably transfecting HEK 293 cells with rat nAChR subunit genes. The cell line expressing human α4β2 nAChRs, YXα4β2H1, was established recently. These cell lines were maintained in minimum essential medium (MEM) supplemented with 10% fetal bovine serum, 100 units/mL penicillin G, […] streptomycin and selective antibiotics at 37° C. with 5% CO2 in a humidified incubator. Fetal bovine scrum was provided by Gemini Bio-Products (Woodland, Calif.). Tissue culture medium and antibiotics were obtained from Invitrogen Corporation (Carlsbad, Calif.), unless otherwise stated.
(§4) Functional properties of compounds at nAChRs expressed in the transfected cells were measured using ^86Rb^+ efflux assays as described previously. In brief, cells expressing human α4β2 or rat α3β4 nAChRs were plated into 24-well plates coated with poly-D-lysine. The plated cells were grown at 37° C. for 18 to 24 hour to reach 85-95% confluence. The cells were then incubated in growth medium (0.5 mL/well) containing ^86Rb^+ (2 μCi/mL) for 4 hour at 37° C. The loading mixture was then aspirated, and the cells were washed four times with 1 mL buffer (15 mM HEPES, 140 mM NaCl, 2 mM KCl, 1 mM MgSO4, 1.8 mM CaCl2, 11 mM Glucose, pH 7.4). One mL of buffer with or without compounds to be tested was then added to each well. After incubation for 2 min, the assay buffer was collected for measurements of ^86R^+ released from the cells. Cells were then lysed by adding 1 mL of 100 mM NaOH to each well, and the lysate was collected for determination of the amount of ^86Rb^+ that was in the cells at the end of the efflux assay. Radioactivity of assay samples and lysates was measured by liquid scintillation counting. Total loading (cpm) was calculated as the sum of the assay sample and the lysate of each well. The amount of ^86Rb^+ efflux was expressed as a percentage of ^86Rb^| loaded. […] For obtaining EC50 and Emax values, stimulation curves were constructed in which 8 different concentrations of a ligand were included in the assay. […] EC50, Emax and IC50(10′) values were determined by nonlinear least-squares regression analyses (GraphPad, San Diego, Calif.).

α4β2 nAChR = molecular target: T2, α4β2 nAChR (Rattus norvegicus, UniProt P09483+P12390); test: [3H]-epibatidine competition binding, α4β2 nAChR in stably transfected HEK 293 cells; conditions: competition against [3H]-epibatidine
T2 construct: expressed in transfected cells; host or cells: HEK 293
Description: (§5) Pharmacological Properties. We measured the in vitro binding affinities of the ligands for defined receptor subtypes (α2β2, α2β4, α3β2, α3β4, α4β2, α4β4, α6β2, α6β4, and α7) expressed in stably transfected cell lines. […] Rat forebrain homogenates were included to allow comparison between the heterologous and native α4β2 and α7 nAChRs.
(§6) To determine selectivities of these compounds in binding assays among the three predominant nAChR subtypes, α3β4, α4β2, and α7, the ratios of Ki values (α3β4/α4β2 and α7/α4β2) were determined.
as §3
(§7) Briefly, cultured cells at >80% confluence were removed from their flasks (80 cm^2) with a disposable cell scraper and placed in 10 mL of 50 mM Tris⋅HCl buffer (pH 7.4, 4° C.). The cell suspension was centrifuged at 10,000×g for 5 min and the pellet was collected. The cell pellet was then homogenized in 10 mL buffer with a polytron homogenizer and centrifuged at 36,000 g for 10 min at 4° C. The membrane pellet was resuspended in fresh buffer, and aliquots of the membrane preparation were used for binding assays. […] Bound and free ligands were separated by vacuum filtration through Whatman GF/C filters treated with 0.5% polyethylenimine. The filter-retained radioactivity was measured by liquid scintillation counting. Specific binding was defined as the difference between total binding and nonspecific binding. Data from competition binding assays were analyzed using Prism 5 (GraphPad Software, San Diego, Calif.).

rat α3β4 nAChRs = molecular target: T3, rat α3β4 nAChRs (Rattus norvegicus, UniProt P04757+P12392); test: 86Rb+ efflux assay in cells expressing rat α3β4 nAChRs; format: cell-based; conditions: for α3β4 Emax: efficacy compared to 100 μM (−)-nicotine; for Emax: read-out: α3β4 Emax
T3 construct: expressed in transfected cells; host or cells: HEK 293
Experimental: as §1, §2, §3, §4

α3β4 nAChR = molecular target: T4, α3β4 nAChR (Rattus norvegicus, UniProt P04757+P12392); test: [3H]-epibatidine competition binding, α3β4 nAChR in stably transfected HEK 293 cells; conditions: competition against [3H]-epibatidine
T4 construct: expressed in transfected cells; host or cells: HEK 293
Description: as §5, §6, §3, §7

α7 nAChR = molecular target: T5, α7 nAChR (Rattus norvegicus, UniProt Q05941); test: biochemical; format: binding; conditions: competition against [3H]-epibatidine
T5 construct: expressed in transfected cells; host or cells: HEK 293
Description: as §5, §6
as §3, with “Fetal bovine scrum was provided by Gemini Bio-Products (Woodland, Calif.). Tissue culture medium and antibiotics were obtained from Invitrogen Corporation (Carlsbad, Calif.), unless otherwise stated.” left out
Briefly, cultured cells at >80% confluence were removed from their flasks (80 cm^2) with a disposable cell scraper and placed in 10 mL of 50 mM Tris⋅HCl buffer (pH 7.4, 4° C.). […] The filter-retained radioactivity was measured by liquid scintillation counting. […] Data from competition binding assays were analyzed using Prism 5 (GraphPad Software, San Diego, Calif.).

[1] = agonist activity, stimulated 86Rb+ efflux, read-out: α3β4 EC50

Row | SMILES | agonist activity at the α4β2 nAChRs (in words) (human α4β2 nAChRs) | Emax (human α4β2 nAChRs; read-out: α4β2 Emax) [%] | Ki (α4β2 nAChR) [nM] | EC50 (rat α3β4 nAChRs; [1]) [nM] | IC50 (rat α3β4 nAChRs; desensitization, 10 min pre-treatment before 100 μM (−)-nicotine) [nM] | α3β4 Emax (rat α3β4 nAChRs) [%] | Ki (α3β4 nAChR) [nM] | Ki (α7 nAChR) [nM] | EC50 (human α4β2 nAChRs; agonist activity, stimulated 86Rb+ efflux, read-out: α4β2 EC50) [nM] | IC50 (human α4β2 nAChRs) [nM] | α4β2 Emax (human α4β2 nAChRs) [%] | EC50 (rat α3β4 nAChRs) [nM] | Emax (rat α3β4 nAChRs) [%] | agonist activity at the α3β4 nAChRs (in words) (rat α3β4 nAChRs; stimulated 86Rb+ efflux) | EC50 (human α4β2 nAChRs) [nM] | α4β2 Emax (human α4β2 nAChRs; di-trifluoroacetic acid) [%] | Emax (human α4β2 nAChRs; read-out: α4β2 Emax, efficacy compared to 100 μM (−)-nicotine) [%]
1 | CN1CCCC1c1cccnc1 (single isomer, unassigned; (-)) [(−)-Nicotine] | full agonist activities | 100 | – | – | – | – | – | – | – | – | – | – | – | – | – | – | –
2 | OCCCCC#Cc1cncc(OC[C@@H]2CCN2)c1 [Sazetidine-A] | – | – | 0.034 | 730 | 1300 | 96 | 6.5 | 670 | 24 | 11 | 40 | – | – | – | – | – | –
3 | c1cnc2cc3c(cc2n1)[C@@H]1CNC[C@H]3C1 [Varenicline] | – | – | 0.14 | 3200 | – | 82 | 27 | – | – | – | – | – | – | – | – | – | –
4 | CCCCC#Cc1cnc(C)c(OC[C@@H]2CCN2)c1 [YL-1-127, (S)-3-(azetidin-2-ylmethoxy)-5-(hex-1-ynyl)-2-methylpyridine] | – | – | 14 | – | – | – | 575 | – | – | 260 | – | 11000 | 10 | did not show detectable agonist activity | – | – | –
5 | FCCCCC#Cc1cnc(F)c(OC[C@@H]2CCN2)c1 [YL-2-203, (S)-3-(azetidin-2-ylmethoxy)-2-fluoro-5-(6-fluorohex-1-ynyl)pyridine di-trifluoroacetic acid] | – | – | 0.2 | – | – | – | 93 | 11000 | – | – | – | 6300 | 26 | did not show detectable agonist activity | 35 | 33 | < 33
